Laboratory results reported in US10966426B2, “Herbicidal compositions comprising phenylpyrimidines” (BASF SE, priority 2016, dated 2021).

Tests used:
Assay type in all cases: in vivo
Digitaria sanguinalis = assay: greenhouse post-emergence treatment, DIGSA
How it was run: (§1)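 Scoring used a 0 to 100 scale, with 100 denoting no emergence or full destruction of at least the above-ground parts, recorded within a 2 to 4 week test period. Test plants grew in loamy sand containing about 3.0% humus at 10-25° C. or 20-35° C., after direct sowing or transplanting, and received water-based treatments post-emergence.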

Alopecurus myosuroides = assay: greenhouse post-emergence treatment, ALOMY; conditions: for % activity: 21 DAT
Method: (§2) The culture containers used were plastic pots containing loamy sand with approximately 3.0% of humus as substrate. The seeds of the test plants were sown separately for each species.
To this end, the test plants were either sown directly, and grown in the same containers, or they were first grown separately as seedlings and transplanted into the test containers a few days prior to treatment.
(§3) Depending on the species, the plants were kept at 10-25° C. and 20-35° C., respectively.
(§4) The test period extended over 2 to 4 weeks. During this time, the plants were tended and their response to the individual treatments was evaluated.
(§5) Evaluation was carried out using a scale from 0 to 100. 100 means no emergence of the plants, or complete destruction of at least the above-ground parts, and 0 means no damage or normal course of growth. A good herbicidal activity is given at values of at least 70, and very good herbicidal activity is given at values of at least 85.
In the examples, the solvent used was water.
In the examples below, using the method of S. R. Colby (1967) “Calculating synergistic and antagonistic responses of herbicide combinations”, Weeds 15, p. […] E=X+Y−(X·Y/100) where X=effect in percent using herbicide A at an application rate a; • Y=effect in percent using herbicide B at application rate b; • E=expected effect (in %) of herbicide A+herbicide B at application rates a+b.

Papaver rhoeas = assay: greenhouse post-emergence treatment, PAPRH; conditions: for % activity: 21 DAT
Method: as §2
(§6) For the post-emergence treatment, the test plants were grown to a plant height of from 3 to 15 cm, depending on the plant habit, and only then treated with the active compounds which had been suspended or emulsified in water. To this end, the test plants were either sown directly, and grown in the same containers, or they were first grown separately as seedlings and transplanted into the test containers a few days prior to treatment.
as §3, §4, §5
(§7) The respective stated components A and B, and if appropriate, C were formulated as a 10% by weight strength emulsion concentrate and, with addition of the amount of solvent system, introduced into the spray liquor used for applying the active compound. In the examples, the solvent used was water.
(§8) In the examples below, using the method of S. R. Colby (1967) “Calculating synergistic and antagonistic responses of herbicide combinations”, Weeds 15, p. 22ff., the value E, which is expected if the activity of the individual active compounds is only additive, was calculated. E=X+Y−(X·Y/100) where X=effect in percent using herbicide A at an application rate a; • Y=effect in percent using herbicide B at application rate b; • E=expected effect (in %) of herbicide A+herbicide B at application rates a+b.

Brachiaria decumbens = assay: greenhouse post-emergence treatment, BRADC; conditions: Urochloa decumbens, 480 h, read-out: % activity
Method: as §2, §6, §3, §4, §5, §7, §8

Bromus sterilis = assay: greenhouse post-emergence treatment, BROST; conditions: for % activity: 21 DAT
How it was run: as §1

Polygonum aviculare = assay: greenhouse post-emergence treatment, POLAV; conditions: Polygonum aviculare, 480 h, 20 DAT, POLAV, Table X4, read-out: % activity, solo application
Method: as §2, §6, §3, §4, §5, §7, §8

Avena fatua = assay: greenhouse post-emergence treatment, AVEFA; conditions: Avena fatua, 480 h, 20 DAT, AVEFA, Table X4, read-out: % activity, solo application
How it was run: as §1

Apera spica-venti = assay: greenhouse post-emergence treatment, APESV
Method: as §2, §6, §3, §4, §5, §7, §8

Lolium multiflorum = assay: greenhouse post-emergence treatment, LOLMU; conditions: for % activity: 21 DAT
How it was run: as §1

Setaria viridis = assay: greenhouse post-emergence treatment, SETVI
How it was run: as §1

Matricaria chamomilla = assay: greenhouse post-emergence treatment, MATCH
How it was run: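 Visual herbicidal effect (0–100) recorded over a 2 to 4 week test period after foliar treatment at plant heights of 3 to 15 cm. Expected combination effects derived by the Colby formula from single-component effects X and Y.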

Galium aparine = assay: greenhouse post-emergence treatment, GALAP; conditions: Galium aparine, 480 h
Method: as §2, §6, §3, §4, §5, §7, §8

Poa annua = assay: greenhouse post-emergence treatment, POAAN; conditions: for % activity: 21 DAT
Method: as §2, §6, §3, §4, §5, §7, §8

Stellaria media = assay: greenhouse post-emergence treatment, STEME; conditions: Stellaria media, 480 h, read-out: % activity
Method: as §2, §6, §3, §4, §5, §7, §8

Polygonum convolvulus = assay: greenhouse post-emergence treatment, POLCO; conditions: 21 DAT
Method: as §2, §6, §3, §4, §5, §7, §8

Ambrosia elatior = assay: greenhouse post-emergence treatment, AMBEL; conditions: 21 DAT, topramezone solo 6 gai/ha
Method: as §2, §6, §3, §4, §5, §7, §8

Echinocloa crus-galli = assay: greenhouse post-emergence treatment, ECHCG; conditions: ECHCG, 21 DAT
Method: as §2, §6, §3, §4, §5, §7, §8

[1] = Digitaria sanguinalis, 480 h, read-out: % activity
[2] = Alopecurus myosuroides, 480 h, read-out: % activity
[3] = Bromus sterilis, 480 h, read-out: % activity
[4] = Lolium multiflorum, 480 h, read-out: % activity
[5] = Poa annua, 480 h, read-out: % activity
[6] = 21 DAT, topramezone solo 3 gai/ha
[7] = 21 DAT, topramezone solo 6 gai/ha

N#Cc1cc(Br)c(O)c(Br)c1 [Bromoxynil, bromoxynil]
inhibition at 31.25 g/ha (Digitaria sanguinalis; Digitaria sanguinalis, 480 h, 31.25 gai/ha (EC 235 g/l), 20 DAT, DIGSA, Table X4, read-out: % activity, solo application): 0% | inhibition at 62.5 g/ha (Digitaria sanguinalis; Digitaria sanguinalis, 480 h, 62.5 gai/ha (EC 235 g/l), 20 DAT, DIGSA, Table X4, read-out: % activity, solo application): 0% | inhibition at 125 g/ha (Digitaria sanguinalis; Digitaria sanguinalis, 480 h, 125 gai/ha (EC 235 g/l), 20 DAT, DIGSA, Table X4, read-out: % activity, solo application): 0% | inhibition at 250 g/ha (Digitaria sanguinalis; Digitaria sanguinalis, 480 h, 250 gai/ha (EC 235 g/l), 20 DAT, DIGSA, Table X4, read-out: % activity, solo application): 0% | pest or weed control at 31.25 g/ha (Digitaria sanguinalis; [1]): 0% | pest or weed control at 62.5 g/ha (Digitaria sanguinalis; [1]): 0% | pest or weed control at 125 g/ha (Digitaria sanguinalis; [1]): 0% | pest or weed control at 250 g/ha (Digitaria sanguinalis; [1]): 0% | pest or weed control at 31.25 g/ha (Alopecurus myosuroides; [2]): 0% | pest or weed control at 62.5 g/ha (Alopecurus myosuroides; [2]): 0% | pest or weed control at 125 g/ha (Alopecurus myosuroides; [2]): 0% | pest or weed control at 250 g/ha (Alopecurus myosuroides; [2]): 10% | inhibition at 31.25 g/ha (Papaver rhoeas; Papaver rhoeas, 480 h, 31.25 gai/ha (EC 235 g/l), 20 DAT, PAPRH, Table X4, read-out: % activity, solo application): 40% | pest or weed control at 31.25 g/ha (Brachiaria decumbens): 0% | pest or weed control at 62.5 g/ha (Brachiaria decumbens): 0% | pest or weed control at 125 g/ha (Brachiaria decumbens): 10% | pest or weed control at 31.25 g/ha (Bromus sterilis; [3]): 0% | pest or weed control at 62.5 g/ha (Bromus sterilis; [3]): 0% | pest or weed control at 125 g/ha (Bromus sterilis; [3]): 0% | pest or weed control at 250 g/ha (Bromus sterilis; [3]): 0% | inhibition at 31.25 g/ha (Polygonum aviculare; 31.25 gai/ha (EC 235 g/l)): 65% | inhibition at 62.5 g/ha (Polygonum aviculare; 62.5 gai/ha (EC 235 g/l)): 65% | inhibition at 125 g/ha (Polygonum aviculare; 125 gai/ha (EC 235 g/l)): 65% | inhibition at 31.25 g/ha (Avena fatua; 31.25 gai/ha (EC 235 g/l)): 0% | inhibition at 125 g/ha (Avena fatua; 125 gai/ha (EC 235 g/l)): 0% | % activity (Apera spica-venti; APESV, bromoxynil solo 250 gai/ha, 20 DAT): 0% | inhibition at 31.25 g/ha (Lolium multiflorum; Lolium multiflorum, 480 h, 31.25 gai/ha (EC 235 g/l), 20 DAT, LOLMU, Table X4, read-out: % activity, solo application): 0% | inhibition at 62.5 g/ha (Lolium multiflorum; Lolium multiflorum, 480 h, 62.5 gai/ha (EC 235 g/l), 20 DAT, LOLMU, Table X4, read-out: % activity, solo application): 0% | inhibition at 125 g/ha (Lolium multiflorum; Lolium multiflorum, 480 h, 125 gai/ha (EC 235 g/l), 20 DAT, LOLMU, Table X4, read-out: % activity, solo application): 0% | inhibition at 250 g/ha (Lolium multiflorum; Lolium multiflorum, 480 h, 250 gai/ha (EC 235 g/l), 20 DAT, LOLMU, Table X4, read-out: % activity, solo application): 0% | pest or weed control at 31.25 g/ha (Lolium multiflorum; [4]): 0% | pest or weed control at 62.5 g/ha (Lolium multiflorum; [4]): 0% | pest or weed control at 125 g/ha (Lolium multiflorum; [4]): 0% | pest or weed control at 250 g/ha (Lolium multiflorum; [4]): 0% | inhibition at 31.25 g/ha (Setaria viridis; Setaria viridis, 480 h, 31.25 gai/ha (EC 235 g/l), 20 DAT, SETVI, Table X4, read-out: % activity, solo application): 0% | inhibition at 250 g/ha (Setaria viridis; Setaria viridis, 480 h, 250 gai/ha (EC 235 g/l), 20 DAT, SETVI, Table X4, read-out: % activity, solo application): 0% | inhibition at 31.25 g/ha (Matricaria chamomilla; Matricaria chamomilla, 480 h, 31.25 gai/ha (EC 235 g/l), 20 DAT, MATCH, Table X4, read-out: % activity, solo application): 55% | inhibition at 62.5 g/ha (Galium aparine; 62.5 gai/ha (EC 235 g/l), 20 DAT, GALAP, Table X4, read-out: % activity, solo application): 65% | inhibition at 125 g/ha (Galium aparine; 125 gai/ha (EC 235 g/l), 20 DAT, GALAP, Table X4, read-out: % activity, solo application): 80% | pest or weed control at 31.25 g/ha (Galium aparine; read-out: % activity): 65% | pest or weed control at 62.5 g/ha (Galium aparine; read-out: % activity): 65% | pest or weed control at 125 g/ha (Galium aparine; read-out: % activity): 80% | pest or weed control at 31.25 g/ha (Poa annua; [5]): 0% | pest or weed control at 62.5 g/ha (Poa annua; [5]): 0% | pest or weed control at 125 g/ha (Poa annua; [5]): 0% | pest or weed control at 250 g/ha (Poa annua; [5]): 0% | pest or weed control at 31.25 g/ha (Stellaria media): 30% | pest or weed control at 62.5 g/ha (Stellaria media): 50% | pest or weed control at 125 g/ha (Stellaria media): 60%

Cc1c(C(=O)c2cnn(C)c2O)ccc(S(C)(=O)=O)c1C1=NOCC1 [topramezone]
% activity (Digitaria sanguinalis; [6]): 75% | % activity (Alopecurus myosuroides; topramezone solo 3 gai/ha): 0% | % activity (Alopecurus myosuroides; topramezone solo 6 gai/ha): 0% | % activity (Alopecurus myosuroides; topramezone solo 12 gai/ha): 0% | % activity (Alopecurus myosuroides; topramezone solo 24 gai/ha): 10% | % activity (Alopecurus myosuroides; ALOMY, solo topramezone (SC 336 g/l) 3 gai/ha): 0% | % activity (Alopecurus myosuroides; ALOMY, solo topramezone (SC 336 g/l) 6 gai/ha): 0% | % activity (Alopecurus myosuroides; ALOMY, solo topramezone (SC 336 g/l) 12 gai/ha): 0% | % activity (Polygonum convolvulus; topramezone solo 3 gai/ha): 0% | % activity (Polygonum convolvulus; topramezone solo 6 gai/ha): 30% | % activity (Polygonum convolvulus; topramezone solo 12 gai/ha): 30% | % activity (Polygonum convolvulus; topramezone solo 24 gai/ha): 85% | % activity (Papaver rhoeas; topramezone solo 12 gai/ha): 20% | % activity (Papaver rhoeas; topramezone solo 24 gai/ha): 40% | % activity (Papaver rhoeas; PAPRH, solo topramezone (SC 336 g/l) 3 gai/ha): 0% | % activity (Papaver rhoeas; PAPRH, solo topramezone (SC 336 g/l) 6 gai/ha): 0% | % activity (Ambrosia elatior): 95% | % activity (Bromus sterilis; topramezone solo 3 gai/ha): 0% | % activity (Bromus sterilis; topramezone solo 6 gai/ha): 0% | % activity (Bromus sterilis; topramezone solo 12 gai/ha): 5% | % activity (Bromus sterilis; topramezone solo 24 gai/ha): 25% | % activity (Echinocloa crus-galli; solo topramezone (SC 336 g/l) 3 gai/ha): 70% | % activity (Echinocloa crus-galli; solo topramezone (SC 336 g/l) 12 gai/ha): 98% | % activity (Echinocloa crus-galli; solo topramezone (SC 336 g/l) 24 gai/ha): 98% | % activity (Apera spica-venti; [6]): 0% | % activity (Apera spica-venti; [7]): 0% | % activity (Apera spica-venti; 21 DAT, topramezone solo 12 gai/ha): 30% | % activity (Lolium multiflorum; topramezone solo 3 gai/ha): 0% | % activity (Lolium multiflorum; topramezone solo 6 gai/ha): 0% | % activity (Lolium multiflorum; topramezone solo 12 gai/ha): 10% | % activity (Lolium multiflorum; topramezone solo 24 gai/ha): 20% | % activity (Lolium multiflorum; LOLMU, solo topramezone (SC 336 g/l) 6 gai/ha): 0% | % activity (Setaria viridis; [6]): 70% | % activity (Matricaria chamomilla; [7]): 30% | % activity (Poa annua; topramezone solo 3 gai/ha): 0% | % activity (Poa annua; topramezone solo 6 gai/ha): 0% | % activity (Poa annua; topramezone solo 12 gai/ha): 0% | % activity (Poa annua; topramezone solo 24 gai/ha): 0% | % activity (Poa annua; POAAN, solo topramezone (SC 336 g/l) 3 gai/ha): 0% | % activity (Poa annua; POAAN, solo topramezone (SC 336 g/l) 6 gai/ha): 0% | % activity (Poa annua; POAAN, solo topramezone (SC 336 g/l) 12 gai/ha): 0% | % activity (Poa annua; POAAN, solo topramezone (SC 336 g/l) 24 gai/ha): 0%
